For nine molecules, EC50, IC50 and AC50 results are on record in ChEMBL document CHEMBL1201862, “PubChem BioAssay data set” (2004).

The source made the active and inactive calls.

Assay [1] addresses T1, Eukaryotic translation initiation factor 2-alpha kinase 3 (Homo sapiens, UniProt Q9NZJ5).
T1 sequence (Q9NZJ5 whole entry): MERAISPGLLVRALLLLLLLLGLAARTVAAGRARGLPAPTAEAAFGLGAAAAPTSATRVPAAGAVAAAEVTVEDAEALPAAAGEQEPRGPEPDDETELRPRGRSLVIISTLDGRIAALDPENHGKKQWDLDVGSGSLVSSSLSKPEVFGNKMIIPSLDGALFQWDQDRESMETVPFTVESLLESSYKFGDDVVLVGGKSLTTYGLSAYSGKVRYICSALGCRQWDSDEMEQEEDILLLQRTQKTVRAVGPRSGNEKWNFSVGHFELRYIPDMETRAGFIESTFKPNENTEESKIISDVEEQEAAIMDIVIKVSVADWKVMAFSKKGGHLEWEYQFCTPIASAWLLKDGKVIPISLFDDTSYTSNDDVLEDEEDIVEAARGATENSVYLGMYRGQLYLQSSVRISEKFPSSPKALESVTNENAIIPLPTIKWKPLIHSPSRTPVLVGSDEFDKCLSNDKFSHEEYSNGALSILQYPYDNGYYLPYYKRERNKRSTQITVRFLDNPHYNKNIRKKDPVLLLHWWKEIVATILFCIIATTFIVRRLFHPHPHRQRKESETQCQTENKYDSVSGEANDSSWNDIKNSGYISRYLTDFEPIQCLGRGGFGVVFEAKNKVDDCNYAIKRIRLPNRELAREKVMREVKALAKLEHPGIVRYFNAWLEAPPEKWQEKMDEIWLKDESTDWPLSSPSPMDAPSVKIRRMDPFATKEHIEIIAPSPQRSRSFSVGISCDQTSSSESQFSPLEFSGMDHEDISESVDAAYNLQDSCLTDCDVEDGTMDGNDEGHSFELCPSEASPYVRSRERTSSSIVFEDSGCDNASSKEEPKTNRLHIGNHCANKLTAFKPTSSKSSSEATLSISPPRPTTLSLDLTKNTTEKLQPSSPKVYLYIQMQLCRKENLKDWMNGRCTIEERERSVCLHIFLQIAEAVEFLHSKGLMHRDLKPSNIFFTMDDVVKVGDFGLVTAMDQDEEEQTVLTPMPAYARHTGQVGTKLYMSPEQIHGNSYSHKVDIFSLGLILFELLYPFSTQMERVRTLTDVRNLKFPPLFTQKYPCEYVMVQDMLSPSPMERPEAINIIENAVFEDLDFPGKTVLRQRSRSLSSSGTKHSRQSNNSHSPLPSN
Kind of assay: Dose response cell-based high-throughput screening assay to measure PERK inhibition. [Related pubchem assays: 1416 ]. The assay is classed as functional.

Assay [2] has as its target T1, Eukaryotic translation initiation factor 2-alpha kinase 3. Kind of assay: Counterscreen assay for PERK inhibitors: Dose response cell-based high throughput screening assay to measure inhibition of PERK at 6 hours. [Related pubchem assays: 1522, 1416 ]. The assay is classed as functional.
Assay [3] has as its system HEK293. Kind of assay: cells. The format is functional, cell-based. Conditions: Homo sapiens.
Assay [4] deals with HEK293. In words: cells. The assay is classed as functional, cell-based. Particulars: Homo sapiens. The source holds these as a separate data set.
The test system of assay [5] is HEK293. Kind of assay: cells. The assay is classed as functional, cell-based. Particulars: Homo sapiens. The source holds these as a separate data set.
For assay [6], the system named is HEK293. Kind of assay: NOD2 signaling inhibitors in MDP-stimulated cells, cell-based, uHTS, luminescence (AID 2001). The assay is classed as functional. Particulars: Homo sapiens.
A short description of assay [7]: Luminescence Cell-Based Dose Retest to Confirm Inhibitors of Cancer Stem Cells. [Related pubchem assays (depositor defined):AID2717, AID2721]. Particulars: Homo sapiens. The assay is classed as functional.
In assay [8] the test system is HEK293. In words: NOD1 signaling inhibitors, primary screen, cell-based, luminescence, uHTS (AID 1578). The format is functional. Conditions: Homo sapiens.
Assay [9] addresses Nucleotide-binding oligomerization domain-containing protein 2 (Homo sapiens, UniProt Q9HC29). In words: NOD2 signaling inhibitors, cell-based, luminescence, uHTS, HEK293 (AID 1566). The format is functional.
The target in assay [10] is Peroxisome proliferator-activated receptor gamma/Nuclear receptor coactivator 2 (Homo sapiens, UniProt P37231). The format is functional.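 Further: agonist potency for raising coactivator recruitment to the receptor.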
Assay [11] deals with Peroxisome proliferator-activated receptor gamma/Nuclear receptor coactivator 1 (Homo sapiens, UniProt P37231). The assay is classed as functional.
Peroxisome proliferator-activated receptor gamma/Nuclear receptor coactivator 1, sequence (P37231 whole entry): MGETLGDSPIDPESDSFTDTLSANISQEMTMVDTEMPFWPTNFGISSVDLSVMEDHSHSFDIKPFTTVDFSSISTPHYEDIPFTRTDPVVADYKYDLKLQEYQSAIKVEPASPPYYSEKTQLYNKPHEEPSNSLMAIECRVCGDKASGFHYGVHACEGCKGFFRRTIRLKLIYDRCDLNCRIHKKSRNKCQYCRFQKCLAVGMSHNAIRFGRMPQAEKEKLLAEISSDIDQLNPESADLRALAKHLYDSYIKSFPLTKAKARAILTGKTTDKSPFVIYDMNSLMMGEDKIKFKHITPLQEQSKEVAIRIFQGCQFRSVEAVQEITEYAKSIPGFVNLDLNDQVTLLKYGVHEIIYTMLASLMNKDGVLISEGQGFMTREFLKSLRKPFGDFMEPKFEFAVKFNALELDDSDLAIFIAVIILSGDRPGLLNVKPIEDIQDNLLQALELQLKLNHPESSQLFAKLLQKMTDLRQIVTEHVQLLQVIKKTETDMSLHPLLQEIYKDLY
Peroxisome proliferator-activated receptor gamma/Nuclear receptor coactivator 1, sequence (Q15788 whole entry, further chain): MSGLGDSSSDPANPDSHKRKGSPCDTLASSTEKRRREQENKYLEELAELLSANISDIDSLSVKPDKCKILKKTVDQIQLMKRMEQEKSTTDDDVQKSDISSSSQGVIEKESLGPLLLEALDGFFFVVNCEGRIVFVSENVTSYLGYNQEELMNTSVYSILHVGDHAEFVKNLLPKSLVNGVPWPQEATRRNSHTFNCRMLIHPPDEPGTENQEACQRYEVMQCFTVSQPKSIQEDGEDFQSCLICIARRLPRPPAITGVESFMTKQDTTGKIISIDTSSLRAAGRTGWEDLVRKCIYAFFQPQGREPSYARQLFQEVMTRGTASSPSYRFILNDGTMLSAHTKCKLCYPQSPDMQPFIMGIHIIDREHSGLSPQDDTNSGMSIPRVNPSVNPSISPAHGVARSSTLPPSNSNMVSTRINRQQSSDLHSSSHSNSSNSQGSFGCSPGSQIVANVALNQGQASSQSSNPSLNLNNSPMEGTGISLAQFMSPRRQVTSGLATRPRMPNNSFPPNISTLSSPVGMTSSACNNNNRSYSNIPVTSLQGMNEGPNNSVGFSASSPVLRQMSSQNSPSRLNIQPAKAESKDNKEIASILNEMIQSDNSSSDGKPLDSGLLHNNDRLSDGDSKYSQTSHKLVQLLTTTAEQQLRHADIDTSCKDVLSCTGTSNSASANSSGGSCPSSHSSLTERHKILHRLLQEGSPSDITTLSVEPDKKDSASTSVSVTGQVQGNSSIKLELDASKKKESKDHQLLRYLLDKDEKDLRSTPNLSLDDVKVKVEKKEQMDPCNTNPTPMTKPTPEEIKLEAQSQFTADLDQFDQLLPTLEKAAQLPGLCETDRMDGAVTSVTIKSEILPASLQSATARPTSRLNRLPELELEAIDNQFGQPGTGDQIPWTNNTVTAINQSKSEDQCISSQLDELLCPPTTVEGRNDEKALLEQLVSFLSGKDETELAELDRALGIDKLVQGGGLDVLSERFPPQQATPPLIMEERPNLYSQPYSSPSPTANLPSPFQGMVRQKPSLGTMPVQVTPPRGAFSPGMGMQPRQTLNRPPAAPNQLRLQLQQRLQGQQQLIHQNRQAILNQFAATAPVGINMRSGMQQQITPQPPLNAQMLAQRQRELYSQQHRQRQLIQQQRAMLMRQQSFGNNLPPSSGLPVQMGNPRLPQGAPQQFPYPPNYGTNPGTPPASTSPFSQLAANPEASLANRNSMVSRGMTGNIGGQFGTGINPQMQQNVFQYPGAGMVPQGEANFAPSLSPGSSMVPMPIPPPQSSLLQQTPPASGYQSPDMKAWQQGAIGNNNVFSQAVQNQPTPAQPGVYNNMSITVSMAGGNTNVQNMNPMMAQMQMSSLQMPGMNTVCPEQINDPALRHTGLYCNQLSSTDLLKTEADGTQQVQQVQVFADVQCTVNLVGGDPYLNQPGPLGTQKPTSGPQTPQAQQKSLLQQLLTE
The target of assay [12] is Peroxisome proliferator-activated receptor gamma/Nuclear receptor coactivator 3 (Homo sapiens, UniProt P37231). The assay is classed as functional.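 Further: agonist potency for raising coactivator recruitment to the receptor.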
Peroxisome proliferator-activated receptor gamma/Nuclear receptor coactivator 3, sequence (P37231 whole entry): as the sequence (P37231 whole entry) above
Peroxisome proliferator-activated receptor gamma/Nuclear receptor coactivator 3, sequence (Q9Y6Q9 whole entry, further chain): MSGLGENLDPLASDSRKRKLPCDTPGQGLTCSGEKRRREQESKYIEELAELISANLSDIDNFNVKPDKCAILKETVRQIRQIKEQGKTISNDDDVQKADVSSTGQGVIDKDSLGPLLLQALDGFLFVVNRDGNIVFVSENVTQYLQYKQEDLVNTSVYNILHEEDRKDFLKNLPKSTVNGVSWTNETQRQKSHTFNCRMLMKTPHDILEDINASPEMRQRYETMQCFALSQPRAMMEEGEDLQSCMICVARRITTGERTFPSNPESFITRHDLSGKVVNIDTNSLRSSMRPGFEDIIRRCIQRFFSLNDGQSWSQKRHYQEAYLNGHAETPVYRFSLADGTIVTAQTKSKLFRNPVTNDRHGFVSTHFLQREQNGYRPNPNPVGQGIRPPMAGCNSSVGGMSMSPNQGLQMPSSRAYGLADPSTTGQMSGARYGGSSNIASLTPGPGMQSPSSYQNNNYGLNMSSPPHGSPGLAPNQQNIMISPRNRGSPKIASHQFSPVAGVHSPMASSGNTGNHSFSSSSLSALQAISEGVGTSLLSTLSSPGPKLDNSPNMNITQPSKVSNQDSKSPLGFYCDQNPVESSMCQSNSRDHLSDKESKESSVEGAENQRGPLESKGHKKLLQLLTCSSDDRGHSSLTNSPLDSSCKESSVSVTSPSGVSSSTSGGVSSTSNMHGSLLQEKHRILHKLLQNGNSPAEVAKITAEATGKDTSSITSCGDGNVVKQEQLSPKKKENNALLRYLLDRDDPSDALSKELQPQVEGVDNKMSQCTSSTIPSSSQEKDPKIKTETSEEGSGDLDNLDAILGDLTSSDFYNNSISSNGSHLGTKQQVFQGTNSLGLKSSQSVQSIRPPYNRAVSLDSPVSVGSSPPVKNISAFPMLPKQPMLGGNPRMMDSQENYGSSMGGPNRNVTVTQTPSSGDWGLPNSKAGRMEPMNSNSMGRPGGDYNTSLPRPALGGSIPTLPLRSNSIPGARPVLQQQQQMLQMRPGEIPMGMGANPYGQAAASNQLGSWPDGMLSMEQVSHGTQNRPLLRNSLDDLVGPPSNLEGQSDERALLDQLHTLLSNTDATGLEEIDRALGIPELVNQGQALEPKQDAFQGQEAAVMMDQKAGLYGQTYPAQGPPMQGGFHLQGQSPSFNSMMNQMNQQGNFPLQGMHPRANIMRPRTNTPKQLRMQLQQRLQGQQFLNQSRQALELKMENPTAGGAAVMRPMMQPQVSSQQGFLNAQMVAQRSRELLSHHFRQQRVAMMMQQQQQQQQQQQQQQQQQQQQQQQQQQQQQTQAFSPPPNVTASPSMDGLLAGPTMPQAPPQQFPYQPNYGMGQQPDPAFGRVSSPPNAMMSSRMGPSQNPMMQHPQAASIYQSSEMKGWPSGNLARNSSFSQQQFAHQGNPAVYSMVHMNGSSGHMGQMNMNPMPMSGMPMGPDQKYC
The target in assay [13] is Albumin (Bos taurus, UniProt P02769). Kind of assay: Counterscreen for inhibitors of T-cell receptor (TCR)-CD3 interaction: Fluorescence-based biochemical high throughput dose response assay to identify inhibitors of T-cell receptor (TCR)-CD3 interaction using a TAMRA-labeled BSA probe. The assay is classed as functional. In general terms: Counterscreens check selectivity or assay interference.

Assay [14] can be described thus: cytotoxicity in HPDE-C7 cells, cell-based, fluorescence, HTS (AID 430). The assay is classed as functional. Particulars: Homo sapiens.
Assay [15] is described as follows: cytotoxicity in KRAS-transformed pancreatic duct cells, primary screen, cell-based, fluorescence, HTS (AID 431).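 Further: cell line used: HPDE-C7K.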 Particulars: Homo sapiens. The assay is classed as functional.
Assay [16] has as its target T2, Microphthalmia-associated transcription factor (Homo sapiens, UniProt O75030).
T2 sequence (O75030 whole entry): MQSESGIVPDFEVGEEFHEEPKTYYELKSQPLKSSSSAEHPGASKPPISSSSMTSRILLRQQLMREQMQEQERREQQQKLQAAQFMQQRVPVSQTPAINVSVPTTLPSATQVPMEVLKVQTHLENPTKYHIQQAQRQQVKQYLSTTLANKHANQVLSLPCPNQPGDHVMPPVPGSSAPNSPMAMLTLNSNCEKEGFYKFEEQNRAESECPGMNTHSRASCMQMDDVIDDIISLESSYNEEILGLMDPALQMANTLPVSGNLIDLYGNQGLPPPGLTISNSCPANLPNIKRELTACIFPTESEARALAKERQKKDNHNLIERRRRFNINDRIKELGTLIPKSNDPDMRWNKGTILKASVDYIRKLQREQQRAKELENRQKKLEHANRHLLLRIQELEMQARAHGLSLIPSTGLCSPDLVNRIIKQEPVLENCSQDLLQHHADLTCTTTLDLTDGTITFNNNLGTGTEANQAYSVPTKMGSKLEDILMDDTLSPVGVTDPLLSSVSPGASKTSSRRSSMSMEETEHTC
In words: TRPM1 promoter luciferase signal decrease, dose response, MITF inhibitor project, cell-based, SK-MEL-5, cherry-picked, set 3 (AID 493073).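 Further: SK-MEL-5 melanoma cells with luciferase driven by the MITF target TRPM1 promoter.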 The assay is classed as functional.

Assay [17] relates to H9c2. Kind of assay: cells. The format is functional, cell-based. Particulars: Rattus norvegicus, H9c2, Myocardium.
Assay [18] addresses Luciferin 4-monooxygenase (Photinus pyralis, UniProt P08659). Kind of assay: firefly luciferase enzyme inhibitors, dose response, biochemical, luminescence (AID 1891).
Assay [19] in a line: Luminescence Cell-Based Dose Confirmation HTS to Identify Inhibitors of Platelet Dense Granule Release. [Related pubchem assays: 1663 (Primary HTS), 1678 (Summary of Project)]. The assay is classed as functional.
Assay [20] has as its target T3, High affinity choline transporter 1 (Homo sapiens, UniProt Q9GZV3).
T3 sequence (Q9GZV3 whole entry): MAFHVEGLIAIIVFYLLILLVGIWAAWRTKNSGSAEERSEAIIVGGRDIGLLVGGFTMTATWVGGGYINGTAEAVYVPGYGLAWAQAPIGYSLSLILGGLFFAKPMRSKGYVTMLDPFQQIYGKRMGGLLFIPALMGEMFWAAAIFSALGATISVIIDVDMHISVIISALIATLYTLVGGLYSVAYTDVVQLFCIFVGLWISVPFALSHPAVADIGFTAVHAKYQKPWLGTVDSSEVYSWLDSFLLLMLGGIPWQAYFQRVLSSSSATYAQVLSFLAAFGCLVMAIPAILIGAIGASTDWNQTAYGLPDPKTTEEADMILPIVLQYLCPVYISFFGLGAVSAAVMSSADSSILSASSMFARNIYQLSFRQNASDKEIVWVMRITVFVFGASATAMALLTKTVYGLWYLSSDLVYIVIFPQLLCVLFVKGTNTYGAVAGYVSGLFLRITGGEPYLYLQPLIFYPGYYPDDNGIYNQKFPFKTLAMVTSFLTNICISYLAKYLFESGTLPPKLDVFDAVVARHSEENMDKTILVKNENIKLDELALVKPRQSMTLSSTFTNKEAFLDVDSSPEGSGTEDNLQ
In words: CHT inhibitors, dose response, cell-based, 5-point CRC, membrane potential dye (AID 504840). The assay is classed as functional.

For assay [21], the target named is T3, High affinity choline transporter 1. In words: CHT inhibitors, dose response, cell-based, 10-point CRC, membrane potential dye (AID 588401).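 Further: membrane potential dye fluorescence of choline-evoked depolarization via CHT.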 The assay is classed as functional.
Assay [22] deals with NAD-dependent protein deacylase sirtuin-5, mitochondrial (Homo sapiens, UniProt Q9NXA8). In words: SIRT5 desuccinylase inhibitors, dose response, biochemical, fluorescence imaging, cherry-pick, set 5 (AID 720591).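 Further: desuccinylation of succinyl peptide AMC substrate read as fluorescence after trypsin release; potency of inhibitors that lower fluorescence and may act on trypsin instead.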
Assay [23] deals with T4, RNA-binding protein pos-1 (Caenorhabditis elegans, UniProt G5EF15).
T4 sequence (G5EF15 whole entry): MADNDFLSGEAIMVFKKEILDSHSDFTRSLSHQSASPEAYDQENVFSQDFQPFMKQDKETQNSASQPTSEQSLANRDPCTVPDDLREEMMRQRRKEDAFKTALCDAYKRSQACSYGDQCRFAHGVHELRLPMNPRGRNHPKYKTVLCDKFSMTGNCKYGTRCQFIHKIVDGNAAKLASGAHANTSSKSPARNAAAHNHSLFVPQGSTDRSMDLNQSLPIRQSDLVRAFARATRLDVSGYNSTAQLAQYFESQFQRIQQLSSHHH
In words: inhibitors of POS-1/mex-3 RNA binding, dose response, biochemical, fluorescence polarization (AID 1964).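 Further: purified POS-1 fused to maltose binding protein made in E. coli; potency of compounds blocking POS-1 binding to fluorescent RNA.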

Assay [24] deals with T5, Zinc finger protein mex-5 (Caenorhabditis elegans, UniProt Q9XUB2).
T5 sequence (Q9XUB2 whole entry): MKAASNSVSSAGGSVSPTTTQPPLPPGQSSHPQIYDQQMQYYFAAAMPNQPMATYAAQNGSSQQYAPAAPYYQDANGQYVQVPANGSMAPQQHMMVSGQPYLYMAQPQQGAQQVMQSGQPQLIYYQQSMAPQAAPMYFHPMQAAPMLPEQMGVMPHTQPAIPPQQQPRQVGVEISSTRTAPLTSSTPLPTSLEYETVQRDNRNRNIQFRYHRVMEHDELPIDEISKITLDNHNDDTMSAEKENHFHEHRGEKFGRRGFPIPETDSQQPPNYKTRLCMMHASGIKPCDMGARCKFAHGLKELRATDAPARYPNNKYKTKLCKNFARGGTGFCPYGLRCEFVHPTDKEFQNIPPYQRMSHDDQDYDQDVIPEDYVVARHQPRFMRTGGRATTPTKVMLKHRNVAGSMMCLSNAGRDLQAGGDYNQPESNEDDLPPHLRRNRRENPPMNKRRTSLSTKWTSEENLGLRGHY
In words: MEX-5/TCR-2 RNA interaction inhibitors, dose response, biochemical, C. elegans, fluorescence polarization (AID 1960).

Nucleotide-binding oligomerization domain-containing protein 2, sequence (Q9HC29 whole entry, the tested form may be a part): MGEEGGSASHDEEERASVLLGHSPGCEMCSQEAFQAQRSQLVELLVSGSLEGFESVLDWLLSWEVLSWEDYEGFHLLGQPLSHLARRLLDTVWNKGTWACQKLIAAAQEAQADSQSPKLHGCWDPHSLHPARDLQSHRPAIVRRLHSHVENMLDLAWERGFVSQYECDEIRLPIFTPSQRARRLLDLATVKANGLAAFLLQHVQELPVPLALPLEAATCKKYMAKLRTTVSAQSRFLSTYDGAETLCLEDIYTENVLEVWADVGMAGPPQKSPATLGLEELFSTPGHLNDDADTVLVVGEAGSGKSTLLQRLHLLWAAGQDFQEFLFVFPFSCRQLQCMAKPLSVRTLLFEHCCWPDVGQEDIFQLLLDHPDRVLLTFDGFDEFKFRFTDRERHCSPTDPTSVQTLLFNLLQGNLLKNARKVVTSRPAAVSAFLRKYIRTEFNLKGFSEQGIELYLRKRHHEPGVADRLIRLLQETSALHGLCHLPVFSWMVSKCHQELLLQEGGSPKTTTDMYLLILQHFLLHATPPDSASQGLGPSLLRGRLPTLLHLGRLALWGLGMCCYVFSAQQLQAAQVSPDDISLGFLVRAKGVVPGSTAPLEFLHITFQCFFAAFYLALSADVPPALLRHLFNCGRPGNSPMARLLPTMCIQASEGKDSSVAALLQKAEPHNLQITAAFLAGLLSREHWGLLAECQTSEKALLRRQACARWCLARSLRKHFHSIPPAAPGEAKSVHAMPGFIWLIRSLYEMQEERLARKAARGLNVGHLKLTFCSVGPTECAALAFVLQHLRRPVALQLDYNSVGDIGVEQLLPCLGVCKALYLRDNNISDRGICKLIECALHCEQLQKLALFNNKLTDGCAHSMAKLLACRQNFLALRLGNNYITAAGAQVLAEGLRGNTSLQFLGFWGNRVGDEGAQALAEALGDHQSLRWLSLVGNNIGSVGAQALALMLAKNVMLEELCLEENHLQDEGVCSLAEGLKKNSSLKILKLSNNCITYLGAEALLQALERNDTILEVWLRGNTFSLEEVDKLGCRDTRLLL

As a reminder, the EC50 is the concentration needed to bring the measured effect to its halfway point. With `COc1ccc(C(=O)Cc2ccccc2)cc1OC`, the EC50 in assay [1] and in assay [2] was > 55.7 µM (not active) each time.

A word on the IC50: it is the concentration that gives 50% inhibition. A word on the AC50: it is the concentration at which the activity in the assay is half-maximal. On to `COc1cc(Br)cc(/C=C/c2ccc3cccc(O)c3n2)c1O`, for which the IC50 in [3] was 8.18 µM (active); in [4], > 20 µM (inactive); in [5], > 20 µM (inactive); in assay [6], 6.96 µM (inactive). Further, the half-maximal activity concentration (AC50) in assay [7] is 1.44 µM (active). Besides, the EC50 in assay [8] is 5.78 µM (active); in assay [9], > 20 µM (inactive).

Consider `CN(C)S(=O)(=O)c1cccc(NC(=O)COC(=O)c2cc(-c3cccc(Br)c3)nc3ccccc23)c1`, for which the EC50 is 18.1 µM (not active) in assay [10], 19.1 µM (not active) in [11] and 21.1 µM (not active) in [12]. Besides, the IC50 in [13] was > 94.1 µM (inactive).

With `Cc1nnc(SCC(=O)NC2CCCC2)s1`, the EC50 in assay [1] and in assay [2] was > 55.7 µM (not active) each time.

For the molecule `Cc1ccc(OCc2nnc(SCC(=O)c3ccccc3)n2Cc2ccco2)cc1`, the EC50 in assay [14] and in assay [15] was > 20 µM (not active) throughout.

Regarding `COc1ccc2cc3cc(C(=O)NCCc4ccc(OC)c(OC)c4)oc3nc2c1`, the IC50 in assay [3] is 4.8 µM (active); in assay [4], 18.9 µM (active); in assay [5] it was > 20 µM (inactive); in [6], 5.18 µM (active); in assay [17], > 79 µM (inactive). For the same molecule, the AC50 in [16] is 16.2 µM (active). Moreover, the values for the EC50 in assay [8] and in assay [9] were 9.01 µM (active) and 7.83 µM (active), respectively.

For the molecule `COc1ccccc1C(=O)C1CCCN(C(=O)CSc2ccccn2)C1` (centres undefined), the EC50 in assay [10], in [11] and in assay [12] was > 79.4 µM (not active) in each case.

With `Nc1nc(Cl)nc2c1ncn2[C@@H]1O[C@H](CO)[C@@H](O)[C@H]1O`, the EC50 is > 112 µM (not active) in assay [18], > 55.7 µM (not active) in assay [1], < 0.701 µM (active) in [19] and > 55.7 µM (not active) in [2]. Also, the IC50 in assay [20] was 0.74 µM (active); in [21], 0.336 µM (active).

As to `O=C(O)c1cc(O)c2c(c1)C(=O)c1cccc(O)c1C2=O` [RHEIN], the EC50 in assay [14] was 19.8 µM (active); in [23] it was 29.2 µM (active); in [24], 21.6 µM (active); in [15], 5.19 µM (active). In addition, the AC50 in assay [22] was > 30 µM (inactive).
